Results reported in ChEMBL document CHEMBL1201862, “PubChem BioAssay data set” (2004).
Calls of active or inactive are those of the source.

Key:
Protein Wnt-3a = Protein Wnt-3a (Mus musculus, UniProt P27467); assay: SAR analysis of small molecule antagonists of Gli-SUFU in a Wnt3a luminescent reporter assay.; type: functional
[1] = biological target: T1, Heat shock factor protein 1 (Mus musculus, UniProt P38532); assay: HSF1 potentiators in luciferase reporter cells, confirmation, cell-based, NIH3T3, luminescence, dose retest (AID 435004); type: functional;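 further: stress induced by proteasome inhibitor MG132 added 30 min after compound; luciferase reporter driven by HSF1 response element in NIH3T3 cells; actives raise luminescence as potentiators of the MG132 stress response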
T1 sequence (P38532 whole entry): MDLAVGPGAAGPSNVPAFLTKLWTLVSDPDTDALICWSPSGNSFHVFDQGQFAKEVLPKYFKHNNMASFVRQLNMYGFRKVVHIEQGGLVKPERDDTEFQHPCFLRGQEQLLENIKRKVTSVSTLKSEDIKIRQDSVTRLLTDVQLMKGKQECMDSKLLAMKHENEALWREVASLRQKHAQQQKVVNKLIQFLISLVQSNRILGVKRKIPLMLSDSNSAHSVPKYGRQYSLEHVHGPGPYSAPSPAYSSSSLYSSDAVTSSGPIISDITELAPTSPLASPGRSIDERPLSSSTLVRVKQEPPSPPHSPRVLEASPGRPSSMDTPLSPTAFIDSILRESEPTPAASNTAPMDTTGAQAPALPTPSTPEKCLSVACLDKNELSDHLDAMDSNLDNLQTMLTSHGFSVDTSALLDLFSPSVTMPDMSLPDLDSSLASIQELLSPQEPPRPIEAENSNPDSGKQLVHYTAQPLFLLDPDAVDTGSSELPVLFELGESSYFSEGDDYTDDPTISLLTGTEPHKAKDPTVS

Beta-galactosidase = Beta-galactosidase (Escherichia coli, UniProt Q8VNN2); assay: Dose response counterscreen for EBI2 assay utilizing the enzyme, b-galactosidase.; type: functional
[2] = biological target: T2, Replicative DNA helicase DnaB (Mycobacterium tuberculosis, UniProt P9WMR3); assay: DnaB intein splicing inhibitors, dose response, biochemical, cell-free fluorescence (AID 449749); type: functional
T2 sequence (P9WMR3 whole entry): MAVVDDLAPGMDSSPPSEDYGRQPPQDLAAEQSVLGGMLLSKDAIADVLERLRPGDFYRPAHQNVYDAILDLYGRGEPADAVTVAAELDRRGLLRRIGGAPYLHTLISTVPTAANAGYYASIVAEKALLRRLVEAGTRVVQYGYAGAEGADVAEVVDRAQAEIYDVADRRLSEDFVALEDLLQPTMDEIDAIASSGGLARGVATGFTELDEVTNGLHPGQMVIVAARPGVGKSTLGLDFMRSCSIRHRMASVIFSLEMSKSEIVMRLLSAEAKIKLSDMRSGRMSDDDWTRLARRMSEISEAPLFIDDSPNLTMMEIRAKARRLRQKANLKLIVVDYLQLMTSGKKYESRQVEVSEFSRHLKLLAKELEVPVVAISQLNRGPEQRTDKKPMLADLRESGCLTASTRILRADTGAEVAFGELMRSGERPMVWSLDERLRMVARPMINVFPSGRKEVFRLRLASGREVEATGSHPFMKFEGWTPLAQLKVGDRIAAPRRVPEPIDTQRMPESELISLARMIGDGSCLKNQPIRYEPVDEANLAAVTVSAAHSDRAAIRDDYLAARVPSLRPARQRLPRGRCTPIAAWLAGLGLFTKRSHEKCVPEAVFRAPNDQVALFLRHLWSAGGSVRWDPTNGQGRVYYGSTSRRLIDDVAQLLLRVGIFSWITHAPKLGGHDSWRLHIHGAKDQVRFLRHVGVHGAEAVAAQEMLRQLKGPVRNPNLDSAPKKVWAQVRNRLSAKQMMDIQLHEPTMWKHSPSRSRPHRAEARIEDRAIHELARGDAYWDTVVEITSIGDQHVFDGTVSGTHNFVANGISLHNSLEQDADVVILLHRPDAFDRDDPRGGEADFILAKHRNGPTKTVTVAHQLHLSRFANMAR

[3] = biological target: T3, Apoptotic protease-activating factor 1 (Homo sapiens, UniProt O14727); type: functional
T3 sequence (O14727 whole entry): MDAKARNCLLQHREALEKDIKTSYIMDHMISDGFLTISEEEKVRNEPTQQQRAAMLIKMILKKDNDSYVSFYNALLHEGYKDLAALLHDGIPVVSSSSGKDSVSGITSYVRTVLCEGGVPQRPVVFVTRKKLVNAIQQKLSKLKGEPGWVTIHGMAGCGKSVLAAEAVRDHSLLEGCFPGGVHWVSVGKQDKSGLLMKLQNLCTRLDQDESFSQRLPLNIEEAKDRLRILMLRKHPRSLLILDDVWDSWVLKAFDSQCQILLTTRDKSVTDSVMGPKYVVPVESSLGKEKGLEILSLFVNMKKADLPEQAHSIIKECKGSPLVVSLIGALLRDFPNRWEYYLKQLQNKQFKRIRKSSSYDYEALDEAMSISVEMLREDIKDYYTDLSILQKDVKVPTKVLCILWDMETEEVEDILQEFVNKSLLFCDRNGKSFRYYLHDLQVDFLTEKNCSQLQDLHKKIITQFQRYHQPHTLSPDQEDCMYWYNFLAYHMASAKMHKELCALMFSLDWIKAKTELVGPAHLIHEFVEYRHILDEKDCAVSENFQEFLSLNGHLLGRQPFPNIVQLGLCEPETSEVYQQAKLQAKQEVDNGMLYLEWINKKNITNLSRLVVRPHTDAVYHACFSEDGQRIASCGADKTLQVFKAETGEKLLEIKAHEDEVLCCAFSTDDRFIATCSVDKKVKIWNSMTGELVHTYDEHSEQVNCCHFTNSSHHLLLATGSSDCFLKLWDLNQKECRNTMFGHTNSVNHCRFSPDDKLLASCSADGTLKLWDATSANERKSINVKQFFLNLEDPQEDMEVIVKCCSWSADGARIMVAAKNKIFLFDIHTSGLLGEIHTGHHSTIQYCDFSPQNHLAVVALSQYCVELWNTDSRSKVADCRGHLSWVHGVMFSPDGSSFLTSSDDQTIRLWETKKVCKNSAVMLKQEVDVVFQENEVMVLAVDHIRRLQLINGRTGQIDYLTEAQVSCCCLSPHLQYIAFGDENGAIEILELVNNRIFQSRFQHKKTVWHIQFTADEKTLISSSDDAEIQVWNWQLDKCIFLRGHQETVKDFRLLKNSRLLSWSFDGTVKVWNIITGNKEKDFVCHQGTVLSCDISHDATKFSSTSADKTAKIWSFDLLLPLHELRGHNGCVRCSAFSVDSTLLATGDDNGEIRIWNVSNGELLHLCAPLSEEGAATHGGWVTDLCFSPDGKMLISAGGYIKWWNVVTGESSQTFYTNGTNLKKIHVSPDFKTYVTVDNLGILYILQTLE

[4] = biological target: T4, Mitochondrial peptide methionine sulfoxide reductase (Bos taurus, UniProt P54149); type: functional;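 further: absorbance read-out, biochemical high-throughput dose-response screen for MsrA inhibitors, confirmatory; recombinant bovine MsrA coupled to E. coli TrxB with NADPH and selenocystamine; potency is for inhibitors of MsrA activity on DMSO substrate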
T4 sequence (P54149 whole entry): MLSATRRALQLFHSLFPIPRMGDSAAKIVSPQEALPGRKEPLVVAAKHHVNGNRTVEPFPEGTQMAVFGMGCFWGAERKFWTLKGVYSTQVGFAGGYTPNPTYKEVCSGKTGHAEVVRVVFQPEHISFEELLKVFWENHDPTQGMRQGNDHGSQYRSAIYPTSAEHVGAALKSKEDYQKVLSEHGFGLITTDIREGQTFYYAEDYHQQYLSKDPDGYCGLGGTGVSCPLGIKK

Protein RecA = biological target: T5, Protein RecA (Mycobacterium tuberculosis, UniProt P9WHJ3); assay: Fluorescence Cell-Free Homogeneous Dose Retest to Identify Inhibitors of RecA-Intein Splicing Activity. [Related pubchem assays (depositor defined):AID2097, AID2223, AID489010, AID492950]; type: functional
T5 sequence (P9WHJ3 whole entry): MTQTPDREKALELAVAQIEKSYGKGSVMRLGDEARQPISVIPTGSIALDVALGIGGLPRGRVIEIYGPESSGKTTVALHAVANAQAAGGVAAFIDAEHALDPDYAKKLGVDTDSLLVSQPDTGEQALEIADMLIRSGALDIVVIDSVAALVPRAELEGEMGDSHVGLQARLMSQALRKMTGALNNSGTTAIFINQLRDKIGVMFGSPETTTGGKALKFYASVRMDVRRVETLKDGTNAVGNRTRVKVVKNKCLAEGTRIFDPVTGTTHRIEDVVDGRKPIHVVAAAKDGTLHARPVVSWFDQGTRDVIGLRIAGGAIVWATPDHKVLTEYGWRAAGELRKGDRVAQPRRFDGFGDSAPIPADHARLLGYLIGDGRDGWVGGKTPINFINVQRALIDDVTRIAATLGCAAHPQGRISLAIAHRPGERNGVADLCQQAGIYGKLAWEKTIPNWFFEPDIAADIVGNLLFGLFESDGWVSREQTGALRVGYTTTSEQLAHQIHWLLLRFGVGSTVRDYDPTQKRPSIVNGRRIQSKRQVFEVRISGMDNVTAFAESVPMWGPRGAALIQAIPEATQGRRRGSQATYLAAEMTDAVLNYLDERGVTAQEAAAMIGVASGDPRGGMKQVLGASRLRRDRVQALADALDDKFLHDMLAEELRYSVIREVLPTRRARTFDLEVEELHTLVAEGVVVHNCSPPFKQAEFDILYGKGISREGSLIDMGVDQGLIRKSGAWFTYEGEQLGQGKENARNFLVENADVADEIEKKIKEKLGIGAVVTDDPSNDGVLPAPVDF

[5] = biological target: T6, DNA repair protein RAD52 homolog (Homo sapiens, UniProt P43351); type: functional, biochemical
T6 sequence (P43351 whole entry): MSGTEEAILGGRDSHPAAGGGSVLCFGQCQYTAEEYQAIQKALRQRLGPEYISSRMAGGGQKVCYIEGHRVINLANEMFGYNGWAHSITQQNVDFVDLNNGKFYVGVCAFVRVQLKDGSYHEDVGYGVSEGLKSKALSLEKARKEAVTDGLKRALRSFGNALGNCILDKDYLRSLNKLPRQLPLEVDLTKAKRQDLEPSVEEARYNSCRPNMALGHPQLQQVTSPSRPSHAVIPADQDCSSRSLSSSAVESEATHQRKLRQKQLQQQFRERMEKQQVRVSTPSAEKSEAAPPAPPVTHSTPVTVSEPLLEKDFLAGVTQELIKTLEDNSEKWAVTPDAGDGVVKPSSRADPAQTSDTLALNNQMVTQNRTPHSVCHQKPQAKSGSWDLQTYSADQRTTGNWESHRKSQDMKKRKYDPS

[6] = biological target: T7, Trace amine-associated receptor 1 (Homo sapiens, UniProt Q96RJ0); assay: Fluorescence-based cell-based high throughput dose response assay to identify agonists of the human trace amine associated receptor 1 (TAAR1).; type: functional
T7 sequence (Q96RJ0 whole entry): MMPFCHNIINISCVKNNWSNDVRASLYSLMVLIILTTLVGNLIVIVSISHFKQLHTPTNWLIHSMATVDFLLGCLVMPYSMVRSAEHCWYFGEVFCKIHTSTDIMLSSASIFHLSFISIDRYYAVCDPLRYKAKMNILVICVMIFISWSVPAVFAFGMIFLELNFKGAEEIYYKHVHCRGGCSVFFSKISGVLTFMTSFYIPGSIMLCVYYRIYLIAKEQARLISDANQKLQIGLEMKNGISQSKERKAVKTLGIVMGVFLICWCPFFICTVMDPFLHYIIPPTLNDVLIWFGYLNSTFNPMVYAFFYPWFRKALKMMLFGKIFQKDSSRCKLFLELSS

[7] = biological target: T7, Trace amine-associated receptor 1; assay: Counterscreen for agonists of the human trace amine associated receptor 1 (hTAAR1): Fluorescence-based cell-based high throughput dose response assay to identify hTAAR1 agonist that also desensitize TAAR1 receptor response.; type: functional
cells [8] = type: functional, cell-based
cells [9] = type: functional, cell-based; remark: listed apart in the source

Sequence of Protein Wnt-3a (P27467 whole entry): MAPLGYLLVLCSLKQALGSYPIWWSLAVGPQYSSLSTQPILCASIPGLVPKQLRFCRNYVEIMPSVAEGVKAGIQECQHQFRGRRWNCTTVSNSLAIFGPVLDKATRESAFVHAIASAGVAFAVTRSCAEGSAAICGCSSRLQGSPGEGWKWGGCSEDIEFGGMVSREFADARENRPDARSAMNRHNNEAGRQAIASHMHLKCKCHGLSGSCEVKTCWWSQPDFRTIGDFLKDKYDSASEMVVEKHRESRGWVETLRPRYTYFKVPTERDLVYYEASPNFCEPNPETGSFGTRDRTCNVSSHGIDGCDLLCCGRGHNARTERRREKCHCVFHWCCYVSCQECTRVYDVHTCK
Sequence of Beta-galactosidase (Q8VNN2 whole entry): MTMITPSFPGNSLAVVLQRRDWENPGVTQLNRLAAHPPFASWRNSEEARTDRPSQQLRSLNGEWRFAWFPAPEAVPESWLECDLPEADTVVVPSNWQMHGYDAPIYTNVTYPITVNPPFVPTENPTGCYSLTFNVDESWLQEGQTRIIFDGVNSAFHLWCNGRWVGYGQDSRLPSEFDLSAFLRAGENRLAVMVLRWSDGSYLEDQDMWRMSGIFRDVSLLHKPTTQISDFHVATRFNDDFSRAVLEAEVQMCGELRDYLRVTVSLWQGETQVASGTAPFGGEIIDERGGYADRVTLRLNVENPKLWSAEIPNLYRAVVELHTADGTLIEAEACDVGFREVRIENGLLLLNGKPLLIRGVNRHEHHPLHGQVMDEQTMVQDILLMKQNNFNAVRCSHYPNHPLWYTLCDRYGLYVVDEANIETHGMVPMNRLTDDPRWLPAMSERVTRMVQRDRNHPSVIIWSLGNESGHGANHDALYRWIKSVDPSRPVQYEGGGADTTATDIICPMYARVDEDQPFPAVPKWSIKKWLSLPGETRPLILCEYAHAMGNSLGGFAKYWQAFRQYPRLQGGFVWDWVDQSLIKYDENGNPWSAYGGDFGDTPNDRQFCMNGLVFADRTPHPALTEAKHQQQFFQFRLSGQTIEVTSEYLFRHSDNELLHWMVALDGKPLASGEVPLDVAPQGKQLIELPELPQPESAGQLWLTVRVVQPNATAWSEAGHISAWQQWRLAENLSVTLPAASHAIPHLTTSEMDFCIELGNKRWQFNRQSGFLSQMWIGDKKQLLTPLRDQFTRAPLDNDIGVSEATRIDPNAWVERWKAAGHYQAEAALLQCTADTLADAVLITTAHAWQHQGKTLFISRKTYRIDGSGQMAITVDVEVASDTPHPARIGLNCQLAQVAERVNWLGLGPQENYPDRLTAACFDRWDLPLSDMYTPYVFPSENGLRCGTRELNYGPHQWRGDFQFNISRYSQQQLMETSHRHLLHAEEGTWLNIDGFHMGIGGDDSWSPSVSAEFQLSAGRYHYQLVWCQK

In the case of `CCN(CC)c1cc(NC(=O)c2cccc(F)c2)ncn1`, the IC50 (Protein Wnt-3a) is reported as > 21.8 µM (inactive).
For `Cc1nc(NC(=O)c2ccccc2)cc(N2CCCC2)n1`, the IC50 (Protein Wnt-3a) was > 21.8 µM (inactive).
In the case of `O=C(CSc1ccc(Cl)cc1)N1CCN(c2c(Cl)cccc2[N+](=O)[O-])CC1`, the EC50 [1] is reported as 14.8 µM (active) and the IC50 (Beta-galactosidase) is reported as > 80 µM (inactive).
In the case of `CCOC(=O)N1CCN(C(=O)c2cc3c(s2)-c2c(C)cccc2OC3)CC1`, the IC50 (Beta-galactosidase) is reported as > 80 µM (inactive).
For `O=C(O)c1cccc(NC2=C(n3nnc4ccccc43)C(=O)c3ccccc3C2=O)c1`, the AC50 [2] was 2.53 µM (active), the IC50 [3] was 10.9 µM (active) and the IC50 [4] was 31.4 µM (inactive). The EC50 (Protein RecA) was 2.26 µM (active).
With `CCCCCCCCCCCCCCCC[n+]1ccccc1` the AC50 [5] was 4.21 µM (active).
In the case of `CCn1c(C)nc2cc(C(=O)NNC(=O)Nc3ccc(Cl)cc3)ccc21`, the EC50 [6] is reported as > 29.9 µM (inactive), the IC50 [7] is reported as > 29.9 µM (inactive) and the IC50 (cells [8]) is reported as > 29.9 µM (inactive). For the same compound, the EC50 (cells [9]) was > 29.9 µM (inactive).
For `Cc1ccc(Nc2ccc(C(=O)NC3CCCCC3)cn2)cc1`, the IC50 (Beta-galactosidase) was > 80 µM (inactive).
For `O=C(Nc1cc(N2CCCCC2)ncn1)c1ccsc1`, the IC50 (Protein Wnt-3a) was > 21.8 µM (inactive).
For `Cn1c(=O)c(=O)n(C)c2cc(S(=O)(=O)NCCc3ccccc3)ccc21`, the EC50 [6] was 2.21 µM (active), the IC50 [7] was 8.95 µM (active) and the IC50 (cells [8]) was > 29.9 µM (inactive). For the same compound, the EC50 (cells [9]) was > 29.9 µM (inactive).
With `CC(=NCCc1ccccc1)C1=C(O)OCC1` the EC50 [6] was 0.65 µM (active), the IC50 [7] was 2.35 µM (active) and the IC50 (cells [8]) was > 30 µM (inactive). The EC50 (cells [9]) was > 30 µM (inactive).
